These compounds were tested against T1, Human TRPC6 (Homo sapiens, UniProt Q9Y210) (assay: Evaluation of TRPC6 channel inhibitory activity (1), FLIPR Calcium 5 Assay Kit, OAG stimulation (Compound Nos. 1-1293)). Details: Human TRPC6 stably-expressing cells, OAG 30 μM, FLIPR Calcium 5 Assay Kit; read-out: Inhibitory activity (pIC50 class) (converted).
T1 construct: expressed in transfected cells
T1 sequence (Q9Y210 1-931): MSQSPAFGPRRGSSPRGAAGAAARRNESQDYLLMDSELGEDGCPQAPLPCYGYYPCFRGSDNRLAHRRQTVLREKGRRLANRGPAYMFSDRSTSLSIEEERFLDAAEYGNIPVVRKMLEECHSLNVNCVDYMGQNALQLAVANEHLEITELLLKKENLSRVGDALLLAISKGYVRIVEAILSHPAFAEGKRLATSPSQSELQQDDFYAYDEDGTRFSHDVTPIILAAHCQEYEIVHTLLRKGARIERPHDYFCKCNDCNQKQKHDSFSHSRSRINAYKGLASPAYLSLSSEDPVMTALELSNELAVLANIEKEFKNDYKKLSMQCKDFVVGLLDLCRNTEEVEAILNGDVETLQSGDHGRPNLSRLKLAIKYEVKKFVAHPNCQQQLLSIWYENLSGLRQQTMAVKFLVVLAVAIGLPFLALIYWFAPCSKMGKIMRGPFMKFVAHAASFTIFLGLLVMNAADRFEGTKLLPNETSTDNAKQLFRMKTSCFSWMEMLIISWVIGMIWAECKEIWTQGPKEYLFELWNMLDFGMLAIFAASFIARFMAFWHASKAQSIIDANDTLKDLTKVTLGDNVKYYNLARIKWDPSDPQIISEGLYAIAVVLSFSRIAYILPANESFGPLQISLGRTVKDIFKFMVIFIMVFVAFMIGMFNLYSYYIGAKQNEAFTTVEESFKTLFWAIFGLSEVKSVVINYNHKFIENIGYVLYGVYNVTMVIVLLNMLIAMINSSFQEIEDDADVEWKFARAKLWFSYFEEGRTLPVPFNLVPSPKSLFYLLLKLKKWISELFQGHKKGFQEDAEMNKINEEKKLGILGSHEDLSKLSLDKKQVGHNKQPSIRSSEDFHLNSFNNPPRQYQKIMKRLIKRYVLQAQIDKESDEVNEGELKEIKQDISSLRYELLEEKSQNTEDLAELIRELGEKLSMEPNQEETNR
Format: cell-based
In short: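 Readout is pIC50 from four-parameter logistic fitting of inhibition of the OAG-evoked (30 μM final) fluorescence calcium signal. Human TRPC6 stable cells are dye-loaded with probenecid, and compound is applied 20 min ahead of agonist.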
Work on Cn1nc(-c2ccccn2)cc1Oc1cc(C#N)ccc1-c1ccc(C(C)(C)N)cn1 [compound 395, 4-[5-(2-aminopropan-2-yl)pyridin-2-yl]-3-(2-methyl-5-pyridin-2-ylpyrazol-3-yl)oxybenzonitrile] yielded an IC50 of 10 to 1000 nM. Work on CC(N)c1ccc(-c2ccc(C#N)cc2Oc2cc(-c3ccccn3)nn2C)nc1 (stereo not shown) [compound 396, 4-[5-(1-aminoethyl)pyridin-2-yl]-3-(2-methyl-5-pyridin-2-ylpyrazol-3-yl)oxybenzonitrile] yielded an IC50 of under 10 nM. In the case of Cc1cc(Oc2cc(C#N)ccc2-c2ccc(C(C)(C)N)cn2)cc(N2CCOCC2)n1 [compound 397, 4-[5-(2-aminopropan-2-yl)pyridin-2-yl]-3-(2-methyl-6-morpholin-4-ylpyridin-4-yl)oxybenzonitrile], the IC50 is reported as 10 to 1000 nM. Compound Cc1cc(Oc2cc(C#N)ccc2-c2ccc(C(C)N)cn2)cc(N2CCOCC2)n1 (stereo not shown) [compound 398, 4-[5-(1-aminoethyl)pyridin-2-yl]-3-(2-methyl-6-morpholin-4-ylpyridin-4-yl)oxybenzonitrile] has an IC50 of under 10 nM. CCOc1cc(Oc2cc(C#N)ccc2-c2ccc([C@H](O)CN)cn2)n(C)n1 [compound 399, 4-[5-[(1S)-2-amino-1-hydroxyethyl]pyridin-2-yl]-3-(5-ethoxy-2-methylpyrazol-3-yl)oxybenzonitrile] was tested, and the IC50 was under 10 nM. Cn1nc(C2CC2)cc1Oc1cc(C#N)ccc1-c1ccc(C(C)(C)N)cn1 [compound 400, 4-[5-(2-aminopropan-2-yl)pyridin-2-yl]-3-(5-cyclopropyl-2-methylpyrazol-3-yl)oxybenzonitrile] showed an IC50 of 10 to 1000 nM. In the case of CC(N)c1ccc(-c2ccc(C#N)cc2Oc2cc(C3CC3)nn2C)nc1 (stereo not shown) [compound 401, 4-[5-(1-aminoethyl)pyridin-2-yl]-3-(5-cyclopropyl-2-methylpyrazol-3-yl)oxybenzonitrile], the IC50 is reported as under 10 nM. Cn1nc(-c2cccc(F)c2)cc1Oc1cc(C#N)ccc1-c1ncc(CCN)cn1 [compound 402, 4-[5-(2-aminoethyl)pyrimidin-2-yl]-3-[5-(3-fluorophenyl)-2-methylpyrazol-3-yl]oxybenzonitrile] showed an IC50 of under 10 nM. For Cn1nc(-c2cccc(F)c2)cc1Oc1cc(C#N)ccc1-c1ccc([C@H](O)CN)cn1 [compound 403, 4-[5-[(1S)-2-amino-1-hydroxyethyl]pyridin-2-yl]-3-[5-(3-fluorophenyl)-2-methylpyrazol-3-yl]oxybenzonitrile], the IC50 was under 10 nM. In the case of Cn1nc(C(C)(C)C)cc1Oc1cc(C#N)ccc1-c1ccc([C@H](O)CN)cn1 [compound 405, 4-[5-[(1S)-2-amino-1-hydroxyethyl]pyridin-2-yl]-3-(5-tert-butyl-2-methylpyrazol-3-yl)oxybenzonitrile], the IC50 is reported as under 10 nM. Cn1nc(C(C)(C)C)cc1Oc1cc(C#N)ccc1-c1ncc([C@H](O)CN)cn1 [compound 406, 4-[5-[(1S)-2-amino-1-hydroxyethyl]pyrimidin-2-yl]-3-(5-tert-butyl-2-methylpyrazol-3-yl)oxybenzonitrile] was tested, and the IC50 was under 10 nM. CC(C)n1nc(C2CC2)cc1Oc1cc(C#N)ccc1-c1ccc([C@H](O)CN)cn1 [compound 407, 4-[5-[(1S)-2-amino-1-hydroxyethyl]pyridin-2-yl]-3-(5-cyclopropyl-2-propan-2-ylpyrazol-3-yl)oxybenzonitrile] was tested, and the IC50 was under 10 nM. CC(C)n1nc(C2CC2)cc1Oc1cc(C#N)ccc1-c1ncc([C@H](O)CN)cn1 [compound 408, 4-[5-[(1S)-2-amino-1-hydroxyethyl]pyrimidin-2-yl]-3-(5-cyclopropyl-2-propan-2-ylpyrazol-3-yl)oxybenzonitrile] gave an IC50 of 10 to 1000 nM. For COC(=O)C(N)c1ccc(-c2ccc(C#N)cc2Oc2cc(C)nc(N3CCOCC3)c2)nc1 (stereo not shown) [compound 409, methyl 2-amino-2-[6-[4-cyano-2-(2-methyl-6-morpholin-4-ylpyridin-4-yl)oxyphenyl]pyridin-3-yl]acetate], the IC50 was 10 to 1000 nM. Cc1cc(Oc2cc(C#N)ccc2-c2ccc(C(N)C(=O)O)cn2)cc(N2CCOCC2)n1 (stereo not shown) [compound 410, 2-amino-2-[6-[4-cyano-2-(2-methyl-6-morpholin-4-ylpyridin-4-yl)oxyphenyl]pyridin-3-yl]acetic acid] was tested, and the IC50 was 10 to 1000 nM. Work on N#Cc1ccc(-c2ncc([C@H](O)CN)cn2)c(Oc2cc(C3CC3)nn2CC(F)(F)F)c1 [compound 411, 4-[5-[(1S)-2-amino-1-hydroxyethyl]pyrimidin-2-yl]-3-[5-cyclopropyl-2-(2,2,2-trifluoroethyl)pyrazol-3-yl]oxybenzonitrile] yielded an IC50 of 10 to 1000 nM. Cc1cc(Oc2cc(C#N)ccc2-c2ccc(C(N)CO)cn2)cc(N2CCOCC2)n1 (stereo not shown) [compound 412, 4-[5-(1-amino-2-hydroxyethyl)pyridin-2-yl]-3-(2-methyl-6-morpholin-4-ylpyridin-4-yl)oxybenzonitrile] gave an IC50 of 10 to 1000 nM. Cn1nc(C(C)(C)C)cc1Oc1cc(C#N)ccc1-c1ccc(C(N)CO)cn1 (stereo not shown) [compound 413, 4-[5-(1-amino-2-hydroxyethyl)pyridin-2-yl]-3-(5-tert-butyl-2-methylpyrazol-3-yl)oxybenzonitrile] was tested, and the IC50 was under 10 nM. For Cn1nc(C2CC2)cc1Oc1cc(C#N)ccc1-c1ccc2c(N)noc2c1 [compound 414, 4-(3-amino-1,2-benzoxazol-6-yl)-3-(5-cyclopropyl-2-methylpyrazol-3-yl)oxybenzonitrile], the IC50 was over 1000 nM. For Cn1nc(-c2ccccc2)cc1Oc1cc(C#N)ccc1-c1ccc2c(N)noc2c1 [compound 415, 4-(3-amino-1,2-benzoxazol-6-yl)-3-(2-methyl-5-phenylpyrazol-3-yl)oxybenzonitrile], the IC50 was over 1000 nM. Cn1nc(C2CC2)cc1Oc1cc(C#N)ccc1-c1ccc(N)cn1 [compound 416, 4-(5-aminopyridin-2-yl)-3-(5-cyclopropyl-2-methylpyrazol-3-yl)oxybenzonitrile] was tested, and the IC50 was over 1000 nM. Cn1nc(C2CC2)cc1Oc1cc(C#N)ccc1-c1ncc(N)cn1 [compound 417, 4-(5-aminopyrimidin-2-yl)-3-(5-cyclopropyl-2-methylpyrazol-3-yl)oxybenzonitrile] showed an IC50 of over 1000 nM. In the case of Cc1cc(Oc2cc(C#N)ccc2-c2ccc(C(N)C(N)=O)cn2)cc(N2CCOCC2)n1 (stereo not shown) [compound 418, 2-amino-2-[6-[4-cyano-2-(2-methyl-6-morpholin-4-ylpyridin-4-yl)oxyphenyl]pyridin-3-yl]acetamide], the IC50 is reported as 10 to 1000 nM. Work on Cc1cc(Oc2cc(C#N)ccc2-c2ncc(CCN3CCOCC3)cn2)cc(N2CCOCC2)n1 [compound 419, 3-(2-methyl-6-morpholin-4-ylpyridin-4-yl)oxy-4-[5-(2-morpholin-4-ylethyl)pyrimidin-2-yl]benzonitrile] yielded an IC50 of over 1000 nM. For Cn1nc(C2CC2)cc1Oc1cc(C#N)ccc1-c1ncc(C(N)CO)cn1 (stereo not shown) [compound 420, 4-[5-(1-amino-2-hydroxyethyl)pyrimidin-2-yl]-3-(5-cyclopropyl-2-methylpyrazol-3-yl)oxybenzonitrile], the IC50 was 10 to 1000 nM. Compound Cn1nc(C2CC2)cc1Oc1cc(C#N)ccc1-c1ccc(C(N)CO)cn1 (stereo not shown) [compound 421, 4-[5-(1-amino-2-hydroxyethyl)pyridin-2-yl]-3-(5-cyclopropyl-2-methylpyrazol-3-yl)oxybenzonitrile] has an IC50 of 10 to 1000 nM. Cn1nc(C2CC2)cc1Oc1cc(C#N)ccc1-c1ccc(C(N)C#N)cn1 (stereo not shown) [compound 422, 4-[5-[amino(cyano)methyl]pyridin-2-yl]-3-(5-cyclopropyl-2-methylpyrazol-3-yl)oxybenzonitrile] gave an IC50 of 10 to 1000 nM. Cc1cc(Oc2cc(C#N)ccc2-c2ccc(C(N)C#N)cn2)cc(N2CCOCC2)n1 (stereo not shown) [compound 423, 4-[5-[amino(cyano)methyl]pyridin-2-yl]-3-(2-methyl-6-morpholin-4-ylpyridin-4-yl)oxybenzonitrile] was tested, and the IC50 was 10 to 1000 nM. In the case of Cn1nc(C2CC2)cc1Oc1cc(C#N)ccc1-c1ccc(CN2CCOCC2)cn1 [compound 424, 3-(5-cyclopropyl-2-methylpyrazol-3-yl)oxy-4-[5-(morpholin-4-ylmethyl)pyridin-2-yl]benzonitrile], the IC50 is reported as over 1000 nM. Cc1cc(Oc2cc(C#N)ccc2-c2ccc(CN3CCOCC3)cn2)cc(N2CCOCC2)n1 [compound 425, 3-(2-methyl-6-morpholin-4-ylpyridin-4-yl)oxy-4-[5-(morpholin-4-ylmethyl)pyridin-2-yl]benzonitrile] gave an IC50 of over 1000 nM. Work on Cn1nc(C2CC2)cc1Oc1cc(C#N)ccc1-c1ccc(C(N)C(=O)O)cn1 (stereo not shown) [compound 426, 2-amino-2-[6-[4-cyano-2-(5-cyclopropyl-2-methylpyrazol-3-yl)oxyphenyl]pyridin-3-yl]acetic acid] yielded an IC50 of under 10 nM.
